Measured values from patent US20260325575A1, “THE USE OF BORATE DERIVATIVES IN THE TREATMENT OF NEURODEGENERATIVE DISEASES” (YEDITEPE UNIVERSITESI, priority 2022, published 2026).

How the values were obtained:
[1] = system: gene expression in brain and spinal cord tissues of transgenic mice; assay: Microarray gene expression and pathway analysis (PANTHER GO) in brain and spinal cord; type: in vivo, mouse (C57BL/6 SOD1 G93A; settings: transgenic animals, n=3
Experimental: FIG. 2. is a representation of the gene expressions of the other groups compared to the transgenic control group in the form of a heat map, as a result of the microarray analysis performed on the spinal cord materials of the transgenic and wild type experimental groups (n=3 per group) that received NaB, SPT and water only. (Statistical differences between groups were compared using Volcano plot analysis (two-way ANOVA; P values<0.05) and fold change ±2 and more were considered statistically significant).
FIG. 3. is a representation of some of the pathways in which SPT and NaB derivatives are found to be effective as a result of the pathway analysis (PANTHER Gene Ontology (GO) Classification and Pathway System) and of the number of genes located in these pathways (Total number of genes: 2677, total number of hits: 443).
In addition to measurements of motor function, in order to investigate whether derivatives induce any gene-based changes in the Central nervous system, brain and spinal cord materials were collected from wild type and transgenic control (water), NaB and SPT group animals with n=3 and RNA was isolated from these materials and microarray analysis was performed. […]

[2] = Cytotoxicity analysis (MTS); type: cell-based, human; settings: human, differentiated sh-sy5y cells, neuronal cells, read-out: non-toxic concentration
Experimental: (§1) SHSY5Y cells stocked in cryo tubes at −80° C. or liquid nitrogen were kept in a water bath at 37° C. until completely solved. The solved cells were transferred to 15 ml Falcon tubes containing 5 ml cell medium and centrifuged at 300×g for 5 minutes. After centrifugation, the medium on the cells was removed and the cells were solved with 1 ml of fresh medium using a pipette. Then, the cells were transferred to cell flask containing 12 ml DMEM/F12 medium and incubated at 37° C. for 24±2 hours in an incubator containing 5% CO2.
(§2) The next day, the medium on the adherent cells was changed and incubation was continued until the cells formed 85%-90% monolayer […]. The medium of the monolayered cells was removed and the cells were washed with 5 ml PBS. […]
(§3) After the incubation period was completed, the medium on the cells was removed and the cells were washed again with 1 ml PBS. […] At the end of the tenth day, neuronal cells were ready.
(§4) After the incubation period was completed (24 hours), the medium on the cells was removed and replaced with 10% MTS solution prepared in the cell medium. […] After incubation, absorbance measurements were made using an ELISA plate reader at 490 nm. From the absorbance values obtained, cell viability was calculated according to the formula ((Mean Cell Abs./Mid. Negative Con. Abs.)*100). […]

[3] = system: SOD1 G93A transgenic mice; assay: Rotarod test (motor performance) in SOD1 G93A transgenic mice; type: in vivo, mouse (C57BL/6 SOD1 G93A; settings: 200 mg/kg by gavage every other day for 3 weeks; vs transgenic control (water); 14 rpm, max 180 s; n=8
Experimental: In the in vivo studies conducted, the SOD1 G93A transgenic mice model, which is one of the most preferred animal models for modeling ALS disease, was used. In the study (n=8); SPT and NaB were administered to the animals every other day by gavage. As a result of the comparison of the motor functions of these transgenic animals that received SPT and NaB throughout the experiment with the motor functions of the transgenic control (water) group, it was observed that SPT increased the performance of the rotarod test by 88.4% in the SOD1 G93A model compared to the control group (P<0.01). […] In the group that received water, it was observed that the findings aggravated over time and the rotarod performance decreased.
Example 1 Information about the Experimental Animals Used
Example 2 Experimental Groups
Example 3 Substance Administration
SPT or NaB derivatives at 200 mg/kg per mouse were vortexed at high speed and dissolved in the daily drinking water of the mice. […]
The mice were acclimatized with the rotarod test apparatus for one day before their motor function was tested and their performance was recorded at the end of the second day. Their motor performances were measured three times for a maximum of 180 seconds at a constant speed of 14 rpm, and their longest residence time on the apparatus was recorded. […]

[4] = system: Amyloid beta plaques in SHSY5Y cells differentiated into cholinergic neurons; assay: Amyloid beta plaques in Alzheimer's model, immunocytochemistry (fluorescence); type: cell-based, human
Experimental: SH-SY5Y cells were seeded in 6-well plates with 250×10^5 cells in each well and incubated with medium containing DMEM/F12, 10% FBS, 1% PSA at 37° C. in 5% CO2 for 24 hours. Then, the medium on the cells was removed and each well was washed with 1 ml PBS. Then, 2 ml of differentiation medium (1% FBS, 10 μM/ml RA) was added to each cell well and cells were incubated for 72 hours.
After the incubation period was completed, the medium on the cells was removed and the cells were washed again with 1 ml PBS. Afterwards, 2 ml of differentiation medium (1% FBS, 10 μM/ml RA, 10 μg/ml BDNF) was added to the cells and incubated for 72 hours. The same procedure was repeated on the seventh day. At the end of the tenth day, neuronal cells were ready.
Obtaining Alzheimer's Model and Evaluation of Active Substances
Immunocytochemistry Analysis
The old media on the incubated cells were removed and the cells were washed three times with 1 ml PBS.
Firstly, cells were fixed with 1 ml of 2% paraformaldehyde for 30 min at room temperature and then washed three times with PBS. […]
After incubation, the cells were washed three times with PBS. […] Finally, the cells were washed three times with PBS and measurements were taken with a fluorescence microscope (Zeiss).
The data obtained from the immunocytochemistry study were analysed using Image J (National Institutes of Health) and MS Excel.

[5] = system: SOD1 G93A transgenic mice; assay: Neuroscoring, phenotypic characteristics of NS1 phase; type: in vivo, mouse (C57BL/6 SOD1 G93A
Experimental: SPT or NaB derivatives at 200 mg/kg per mouse were vortexed at high speed and dissolved in the daily drinking water of the mice. Borate Solutions prepared thus in drinking water were administered to mice by gavage every other day for 3 weeks. The control group received only the same amount of drinking water by gavage.
In order to observe during the experiment the stages when early and late symptoms of the disease occur, wild-type and transgenic animals were subjected to neuroscoring as described in the study by Hatzipetros et al. In this way, it was aimed to observe whether the administration to the animals caused any difference in the onset, course and severity of ALS symptoms. For this, the table of the disease course is graded with a scoring System as follows: • 1. Neuro Score 0 (NS 0, Pre-symptomatic): When suspended by the tail, the mouse can fully extend its hindlimbs away from the lateral midline to the side in a normal manner and stay in this position for at least two seconds or longer. When the mouse is allowed to walk, normal gait is observed. • 2. NS 1 (First symptoms): When the mouse is suspended by the tail, its hindlimbs cannot fully extend away from the lateral midline, they partially collapse backwards or the hindlimbs are observed to tremble (tremor). Towards the end of the phase, gait disturbances and slow gait (ataxia) begin. The first symptoms usually appear as of day 90. • 3. NS 2 (Partial paralysis, paresis): When the mouse is suspended by the tail, its hindlimbs are partially or completely collapsed, or cannot extend much, there is still joint movement. When the mouse is allowed to walk, it can use its hindlimbs for forward motion, however it is observed that its toes curl backwards at least twice during a 90 cm walk or it can move by dragging its feet. When the mouse is placed on its left or right side, it is able to right itself within 10 seconds. • 4. NS 3 (Paralysis): When the mouse is suspended by the tail, it is observed that there is rigid paralysis in its hindlimbs or minimal joint movement. When the mouse is allowed to walk, it is observed that there is forward motion however it cannot use its hindlimbs. When the mouse is placed on its left or right side, it is observed that it is able to right itself within 10 seconds. • 5. NS 4 (Humane end-point): When the mouse is suspended by the tail, it is observed that there is rigid paralysis in its hindlimbs. When the mouse is allowed to walk, no motion is observed, when the mouse is placed on its left or right side it is observed that it is not able to right itself within 10 seconds, i.e., absence of righting reflex.
According to this scoring system, if we divide the symptoms observed in animals into phases according to the order of occurrence, 50-80 days after birth can be considered pre-symptomatic. Since as of day 90 the first symptoms start to appear, we can consider this date as the beginning of the early symptomatic phase and also the beginning of neuroscore 1. Although it can vary, this period can last 20-38 days and also covers the neuroscore 2 phase. As of day 120 on average, the process is called late symptomatic. Although it may last a little longer in females, this period lasts 5-10 days on average and neuroscore 3 and 4 phases are also observed during this late symptomatic period

ALS patients = settings: cited from earlier work
[6] = system: SHSY5Y cells differentiated into neuron cells; assay: Cytotoxicity analysis (MTS); type: cell-based, human; settings: 24 hours, neuronal cells
Experimental: as §1, §2, §3, §4

[7] = day 90, 200 mg/kg by gavage every other day, tg mice
[8] = day 110, 200 mg/kg by gavage every other day, tg mice

For `O.O.O.O.O.O=BO[B-](OB=O)(OB=O)OB=O.[Na+]` [NaB, sodium; tetrakis(oxoboranyloxy)boranuide; pentahydrate], the “gene expression compared to transgenic control / wild type” value [1] was “reversed the gene expression at a statistically significant rate, approximating it to the gene expression level in wild type animals”, the MNTC at 24 h [2] was 5 µg/mL and the “increase in rotarod performance compared to the control group” value [3] was 62.45%. For the same compound, the “cells with Amyloid beta plaques” value ([4]; 24 hours, substance alone (ONaB or OAβ group)) was 0%, the inhibition at 5 µg/mL ([4]; Homo sapiens, SH-SY5Y, 24 h, read-out: plaques dissolved in Aβ+NaB group compared to the OAβ group) was 92.4% and the “classical symptoms of stage 1 (NS1) at the end of the experiment (hindlimb retraction, tremor and ataxia)” value ([5]; animals still in NS1 at end of experiment, vs control group) was “considerably weaker than those in the control group”. The “s3 (ataxia), day 80 (t = 0)” value ([5]; day 80, before administration, tg mice) was “very mild”, the “s1 (hindlimb retraction), day 90 (onset of the disease-NS1)” value [5, 7] was “mild” and the “s2 (tremor), day 90 (onset of the disease-NS1)” value [5, 7] was “mild”. The “s3 (ataxia), day 90 (onset of the disease-NS1)” value [5, 7] was “mild”, the “s1 (hindlimb retraction), day 110 (experiment endpoint)” value [5, 8] was “moderate” and the “s2 (tremor), day 110 (experiment endpoint)” value [5, 8] was “moderate”. The “s3 (ataxia), day 110 (experiment endpoint)” value [5, 8] was “moderate”.
In the case of `Nc1nc2ccc(OC(F)(F)F)cc2s1` [Riluzole], the “extension of patient's life span” value (ALS patients) is listed as “approximately a few months”.
With “Amyloid Beta: Amyloid Beta (Aβ), applied to differentiated SHSY5Y cells to create an Alzheimer's model [reference compound]” the non-toxic concentration [6] was 4 µg/mL.
